Assay results taken from PubChem BioAssay AID1259407 (Chemical Carcinogenesis Research Information System (CCRIS), 2018).
Active and inactive are the calls of the source. How the calls were made is not given here.

Test system: CCRIS mutagenicity, Ames/micronucleus/aberration tests
Assay: CCRIS mutagenicity studies
[1] = Test System: AMES SALMONELLA TYPHIMURIUM, Strain/Indicator: TA98, Metabolic Activation: NONE, Method: PREINCUBATION
[2] = Test System: AMES SALMONELLA TYPHIMURIUM, Strain/Indicator: TA98, Metabolic Activation: RAT, LIVER, S-9, PCB, Method: PREINCUBATION
[3] = Test System: AMES SALMONELLA TYPHIMURIUM, Strain/Indicator: TA100, Metabolic Activation: NONE, Method: PREINCUBATION
[4] = Test System: AMES SALMONELLA TYPHIMURIUM, Strain/Indicator: TA98, Metabolic Activation: HAMSTER, LIVER, S-9, AROCLOR 1254 (10%), Method: PREINCUBATION
[5] = Test System: AMES SALMONELLA TYPHIMURIUM, Strain/Indicator: TA98, Metabolic Activation: RAT, LIVER, S-9, AROCLOR 1254 (10%), Method: PREINCUBATION
[6] = Test System: AMES SALMONELLA TYPHIMURIUM, Strain/Indicator: TA100, Metabolic Activation: HAMSTER, LIVER, S-9, AROCLOR 1254 (10%), Method: PREINCUBATION
[7] = Test System: AMES SALMONELLA TYPHIMURIUM, Strain/Indicator: TA100, Metabolic Activation: RAT, LIVER, S-9, AROCLOR 1254 (10%), Method: PREINCUBATION
[8] = Test System: AMES SALMONELLA TYPHIMURIUM, Strain/Indicator: TA1535, Metabolic Activation: HAMSTER, LIVER, S-9, AROCLOR 1254 (10%), Method: PREINCUBATION
[9] = Test System: AMES SALMONELLA TYPHIMURIUM, Strain/Indicator: TA1535, Metabolic Activation: NONE, Method: PREINCUBATION
[10] = Test System: AMES SALMONELLA TYPHIMURIUM, Strain/Indicator: TA1535, Metabolic Activation: RAT, LIVER, S-9, AROCLOR 1254 (10%), Method: PREINCUBATION
[11] = Test System: AMES SALMONELLA TYPHIMURIUM, Strain/Indicator: TA97, Metabolic Activation: NONE, Method: PREINCUBATION
[12] = Test System: CHINESE HAMSTER V-79, Strain/Indicator: V-79/6-THIOGUANINE, Metabolic Activation: NONE

Measured: mutagenic call

Cc1c2c3ccccc3nc-2n(C)c2c(C)cccc12
active: Test System: AMES SALMONELLA TYPHIMURIUM, Strain/Indicator: TA97, Metabolic Activation: RAT, LIVER, S-9, AROCLOR 1254, Method: STANDARD PLATE active; positive

Nc1ccc(Oc2ccc(N)c(Cl)c2)cc1Cl
active: [2] active; positive | Test System: AMES SALMONELLA TYPHIMURIUM, Strain/Indicator: TA100, Metabolic Activation: RAT, LIVER, S-9, PCB, Method: PREINCUBATION active; positive
inactive: [1] inactive; negative | [3] inactive; negative

CC(=O)OCc1ccc2c(c1)OCO2
inactive: [4] inactive; negative | [1] inactive; negative | [5] inactive; negative | [6] inactive; negative | [3] inactive; negative | [7] inactive; negative | [8] inactive; negative | [9] inactive; negative | [10] inactive; negative | Test System: AMES SALMONELLA TYPHIMURIUM, Strain/Indicator: TA1537, Metabolic Activation: HAMSTER, LIVER, S-9, AROCLOR 1254 (10%), Method: PREINCUBATION inactive; negative | Test System: AMES SALMONELLA TYPHIMURIUM, Strain/Indicator: TA1537, Metabolic Activation: NONE, Method: PREINCUBATION inactive; negative | Test System: AMES SALMONELLA TYPHIMURIUM, Strain/Indicator: TA1537, Metabolic Activation: RAT, LIVER, S-9, AROCLOR 1254 (10%), Method: PREINCUBATION inactive; negative

Oc1c2c(c3c(ccc4c3ccc3ccc5ccccc5c34)c1O)O2
active: [11] active; positive | [1] active; positive | [3] active; positive | Test System: AMES SALMONELLA TYPHIMURIUM, Strain/Indicator: TA104, Metabolic Activation: NONE, Method: PREINCUBATION active; positive | [12] active; positive

C=C(C)C(=O)OCC(C)(C)COC(=O)C(=C)C
inactive: Test System: AMES SALMONELLA TYPHIMURIUM, Strain/Indicator: TA98, Metabolic Activation: NONE, Method: STANDARD PLATE inactive; negative | Test System: AMES SALMONELLA TYPHIMURIUM, Strain/Indicator: TA98, Metabolic Activation: RAT, LIVER, S-9, AROCLOR 1254, Method: STANDARD PLATE inactive; negative | Test System: AMES SALMONELLA TYPHIMURIUM, Strain/Indicator: TA98, Metabolic Activation: RAT, LIVER, S-9, SODIUM PHENOBARBITAL, Method: STANDARD PLATE inactive; negative | Test System: AMES SALMONELLA TYPHIMURIUM, Strain/Indicator: TA100, Metabolic Activation: NONE, Method: STANDARD PLATE inactive; negative | Test System: AMES SALMONELLA TYPHIMURIUM, Strain/Indicator: TA100, Metabolic Activation: RAT, LIVER, S-9, AROCLOR 1254, Method: STANDARD PLATE inactive; negative | Test System: AMES SALMONELLA TYPHIMURIUM, Strain/Indicator: TA100, Metabolic Activation: RAT, LIVER, S-9, SODIUM PHENOBARBITAL, Method: STANDARD PLATE inactive; negative | Test System: AMES SALMONELLA TYPHIMURIUM, Strain/Indicator: TA1535, Metabolic Activation: NONE, Method: STANDARD PLATE inactive; negative | Test System: AMES SALMONELLA TYPHIMURIUM, Strain/Indicator: TA1535, Metabolic Activation: RAT, LIVER, S-9, AROCLOR 1254, Method: STANDARD PLATE inactive; negative | Test System: AMES SALMONELLA TYPHIMURIUM, Strain/Indicator: TA1535, Metabolic Activation: RAT, LIVER, S-9, SODIUM PHENOBARBITAL, Method: STANDARD PLATE inactive; negative | Test System: AMES SALMONELLA TYPHIMURIUM, Strain/Indicator: TA1537, Metabolic Activation: NONE, Method: STANDARD PLATE inactive; negative | Test System: AMES SALMONELLA TYPHIMURIUM, Strain/Indicator: TA1537, Metabolic Activation: RAT, LIVER, S-9, AROCLOR 1254, Method: STANDARD PLATE inactive; negative | Test System: AMES SALMONELLA TYPHIMURIUM, Strain/Indicator: TA1537, Metabolic Activation: RAT, LIVER, S-9, SODIUM PHENOBARBITAL, Method: STANDARD PLATE inactive; negative | Test System: AMES SALMONELLA TYPHIMURIUM, Strain/Indicator: TA1538, Metabolic Activation: NONE, Method: STANDARD PLATE inactive; negative | Test System: AMES SALMONELLA TYPHIMURIUM, Strain/Indicator: TA1538, Metabolic Activation: RAT, LIVER, S-9, AROCLOR 1254, Method: STANDARD PLATE inactive; negative | Test System: AMES SALMONELLA TYPHIMURIUM, Strain/Indicator: TA1538, Metabolic Activation: RAT, LIVER, S-9, SODIUM PHENOBARBITAL, Method: STANDARD PLATE inactive; negative

OC1=C2O[C@@H]2CC[C@H]1O
active: [12] active; positive

Nc1ccc(Br)cc1
inactive: Test System: AMES SALMONELLA TYPHIMURIUM, Strain/Indicator: TA97, Metabolic Activation: HAMSTER, LIVER, S-9, AROCLOR 1254 (10%), Method: PREINCUBATION inactive; negative | Test System: AMES SALMONELLA TYPHIMURIUM, Strain/Indicator: TA97, Metabolic Activation: HAMSTER, LIVER, S-9, AROCLOR 1254 (30%), Method: PREINCUBATION inactive; negative | [11] inactive; negative | Test System: AMES SALMONELLA TYPHIMURIUM, Strain/Indicator: TA97, Metabolic Activation: RAT, LIVER, S-9, AROCLOR 1254 (10%), Method: PREINCUBATION inactive; negative | Test System: AMES SALMONELLA TYPHIMURIUM, Strain/Indicator: TA97, Metabolic Activation: RAT, LIVER, S-9, AROCLOR 1254 (30%), Method: PREINCUBATION inactive; negative | [4] inactive; negative | Test System: AMES SALMONELLA TYPHIMURIUM, Strain/Indicator: TA98, Metabolic Activation: HAMSTER, LIVER, S-9, AROCLOR 1254 (30%), Method: PREINCUBATION inactive; negative | [1] inactive; negative | [5] inactive; negative | Test System: AMES SALMONELLA TYPHIMURIUM, Strain/Indicator: TA98, Metabolic Activation: RAT, LIVER, S-9, AROCLOR 1254 (30%), Method: PREINCUBATION inactive; negative | [6] inactive; negative | Test System: AMES SALMONELLA TYPHIMURIUM, Strain/Indicator: TA100, Metabolic Activation: HAMSTER, LIVER, S-9, AROCLOR 1254 (30%), Method: PREINCUBATION inactive; negative | [3] inactive; negative | [7] inactive; negative | Test System: AMES SALMONELLA TYPHIMURIUM, Strain/Indicator: TA100, Metabolic Activation: RAT, LIVER, S-9, AROCLOR 1254 (30%), Method: PREINCUBATION inactive; negative | [8] inactive; negative | Test System: AMES SALMONELLA TYPHIMURIUM, Strain/Indicator: TA1535, Metabolic Activation: HAMSTER, LIVER, S-9, AROCLOR 1254 (30%), Method: PREINCUBATION inactive; negative | [9] inactive; negative | [10] inactive; negative | Test System: AMES SALMONELLA TYPHIMURIUM, Strain/Indicator: TA1535, Metabolic Activation: RAT, LIVER, S-9, AROCLOR 1254 (30%), Method: PREINCUBATION inactive; negative | Test System: E. COLI, Strain/Indicator: WP2 UVRA, Metabolic Activation: NONE, Method: FLUCTUATION TEST inactive; negative
active: End Point: IN VITRO MICRONUCLEUS, Test System: CHL/IU CELLS, Metabolic Activation: RAT, LIVER, S-9, PHENOBARBITAL AND 5,6-BENZOFLAVONE active; positive

Nc1cccc2nc3cccc(N)c3nc12
inactive: [1] inactive; negative | [2] inactive; negative
